# Measured values from the supplement of paper PMC11451515.
# Experiments:
# Conditions in all cases: 48 h
# P12-Ichikawa = assay: AUC of viability dose-response curve (% viability x log10 dose units); higher = less sensitive
# Procedure, shortened: (§1)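 Leukemia cells adapted to each medium were seeded in 1536-well plates (500 or 1000 cells/well) and given library compounds in DMSO for 48 h at 37°C. The 11 threefold doses spanned 47 μM to 0.79 nM, and CellTiter-Glo One luminescence was normalised per plate to DMSO and cell-free wells before four-parameter log-logistic fitting on log10 dose. Area under the curve was integrated with the trapezoidal rule, scaling curves above full viability and removing curves that failed quality control.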
# SEM cells [1] = assay: as above
# Procedure, shortened: as §1
# NOMO1 = assay: as above
# Procedure, shortened: as §1
# SEM cells [2] = assay: cell viability relative to DMSO control; higher = less cytotoxic
# Procedure, shortened: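 Leukemia cells (NOMO1 or SEM, 500 cells/well; P12-Ichikawa, 1000 cells/well) were seeded in 5 μl in 1536-well plates after at least four passages of adaptation to each medium. They received library compounds in DMSO by pin dosing, 11 threefold points from 47 μM to 0.79 nM. Luminescence with CellTiter-Glo One was read after 48 h at 37°C. Viability is stated per plate relative to DMSO wells, with cell-free wells as background.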
# [3] = RPMI 5 mM glucose + 10% dialyzed FBS
Structure (SMILES),AUC of viability dose-response curve (P12-Ichikawa; HPLM + 10% dialyzed FBS),AUC of viability dose-response curve (P12-Ichikawa; RPMI 5 mM glucose + 10% FBS),AUC of viability dose-response curve (P12-Ichikawa; [3]),AUC of viability dose-response curve (SEM cells [1]; HPLM + 10% dialyzed FBS),AUC of viability dose-response curve (SEM cells [1]; RPMI 5 mM glucose + 10% FBS),AUC of viability dose-response curve (SEM cells [1]; [3]),AUC of viability dose-response curve (NOMO1; HPLM + 10% dialyzed FBS),AUC of viability dose-response curve (NOMO1; RPMI 5 mM glucose + 10% FBS),AUC of viability dose-response curve (NOMO1; [3]),"cell viability (SEM cells [2]; HPLM + 10% dialyzed FBS, 0.000781 µM) [%]","cell viability (SEM cells [2]; HPLM + 10% dialyzed FBS, 0.00234 µM) [%]","cell viability (SEM cells [2]; HPLM + 10% dialyzed FBS, 0.00702 µM) [%]","cell viability (SEM cells [2]; HPLM + 10% dialyzed FBS, 0.0211 µM) [%]","cell viability (SEM cells [2]; HPLM + 10% dialyzed FBS, 0.0632 µM) [%]","cell viability (SEM cells [2]; HPLM + 10% dialyzed FBS, 0.19 µM) [%]","cell viability (SEM cells [2]; HPLM + 10% dialyzed FBS, 0.569 µM) [%]","cell viability (SEM cells [2]; HPLM + 10% dialyzed FBS, 1.71 µM) [%]","cell viability (SEM cells [2]; HPLM + 10% dialyzed FBS, 5.12 µM) [%]","cell viability (SEM cells [2]; HPLM + 10% dialyzed FBS, 15.4 µM) [%]","cell viability (SEM cells [2]; HPLM + 10% dialyzed FBS, 46.1 µM) [%]","cell viability (SEM cells [2]; RPMI 5 mM glucose + 10% FBS, 0.000781 µM) [%]","cell viability (SEM cells [2]; RPMI 5 mM glucose + 10% FBS, 0.00234 µM) [%]","cell viability (SEM cells [2]; RPMI 5 mM glucose + 10% FBS, 0.00702 µM) [%]","cell viability (SEM cells [2]; RPMI 5 mM glucose + 10% FBS, 0.0211 µM) [%]","cell viability (SEM cells [2]; RPMI 5 mM glucose + 10% FBS, 0.0632 µM) [%]","cell viability (SEM cells [2]; RPMI 5 mM glucose + 10% FBS, 0.19 µM) [%]","cell viability (SEM cells [2]; RPMI 5 mM glucose + 10% FBS, 0.569 µM) [%]","cell viability (SEM cells [2]; RPMI 5 mM glucose + 10% FBS, 1.71 µM) [%]","cell viability (SEM cells [2]; RPMI 5 mM glucose + 10% FBS, 5.12 µM) [%]","cell viability (SEM cells [2]; RPMI 5 mM glucose + 10% FBS, 15.4 µM) [%]","cell viability (SEM cells [2]; RPMI 5 mM glucose + 10% FBS, 46.1 µM) [%]"
O=C1c2c(O)cc(O)cc2O[C@H](c2ccc(O)c(O)c2)[C@H]1O,459,453,465,454,470,450,469,475,453,113,120,132,113,117,125,127,143,126,127,131,121,123,136,150,126,126,122,122,127,125,128
CCCNC(=O)[C@H]1O[C@@H]1C(=O)N[C@H](C(=O)N1CCC[C@H]1C(=O)OC)C(C)CC (stereo partly drawn),446,416,424,439,420,433,444,421,449,,,,,,,,,,,,,,,,,,,,,,
COC(=O)Nc1ccc(-c2nc(N3CCOCC3)c3cnn(C4CCN(C(=O)OC)CC4)c3n2)cc1,343,339,331,337,375,382,337,392,336,,,,,,,,,,,,,,,,,,,,,,
OC[C@H]1O[C@H](C[C@@H]1O)[N]2C=NC3=C2\N=C/NC[C@H]3O,457,457,475,450,466,469,444,465,434,,,,,,,,,,,,,,,,,,,,,,
